We go through 10 compounds from paper PMC8567988 (Frontiers in Microbiology, 2021).

Values joined by “and” are separate entries in the source; they are usually repeats but may differ in a detail not shown here. Equal values may be shown once. Read-outs that look alike come from different tables or passages of the source. Bounds are passed on as bounds.

Data set [1] has as its system ASFV Ba71V strain. The data set is classed as cell-based, African swine fever virus.
The test system of data set [2] is ASFV Ba71V strain.
For data set [3], the system named is ASFV Ba71V strain. As to the kind of experiment: microbe, parasite or virus in culture. The conditions noted are these: African swine fever virus, Vero, 72 h, read-out: inhibition of ASFV-induced CPE.
A further data set concerns ASFV. It counts as cell-based, African swine fever virus.
The nature of the next data set: in vitro. The conditions noted are these: African green monkey.
Data set [4] relates to ASFV Ba71V strain. As to the kind of experiment: microbe, parasite or virus in culture. The data set is classed as cell-based, African swine fever virus.
Data set [5] deals with ASFV Ba71V strain. As to the kind of experiment: microbe, parasite or virus in culture. The data set is classed as cell-based, African swine fever virus. The source holds these as a separate data set.
For data set [6], the system named is ASFV Ba71V strain. It counts as cell-based, African swine fever virus. This is another data set of the same source.
The test system of data set [7] is ASFV Ba71V. The data set is classed as cell-based, African swine fever virus.
In data set [8] the test system is ASFV Ba71V. The data set is classed as cell-based, African swine fever virus. This is another data set of the same source.
The subject of data set [9] is ASFV Ba71V strain. As to the kind of experiment: microbe, parasite or virus in culture. It counts as cell-based, African swine fever virus. This is another data set of the same source.
Data set [10] concerns ASFV Ba71V. The data set is classed as cell-based, African swine fever virus. This is another data set of the same source.
A further data set relates to ASFV protein (pA104R). It counts as cell-based, African swine fever virus.
For data set [11], the system named is ASFV Ba71V. The data set is classed as cell-based, African swine fever virus. The source holds these as a separate data set.
For data set [12], the system named is ASFV Arm/07 isolate. The data set is classed as cell-based, African swine fever virus.
The subject of data set [13] is ASFV Arm/07 isolate. It counts as cell-based, African swine fever virus. The source holds these as a separate data set.
The subject of data set [14] is ASFV Arm/07 isolate. The data set is classed as cell-based, African swine fever virus. This is another data set of the same source.
The test system of data set [15] is ASFV Arm/07 isolate. The data set is classed as cell-based, African swine fever virus. The source holds these as a separate data set.
Data set [16] has as its system autophagic vacuoles in Vero cells. It counts as cell-based, African green monkey.
The conditions of data set [17]: in vivo; cited from earlier work.

As to `O=c1cc(-c2ccccc2)oc2c1ccc1ccccc12` [7,8-benzoflavone], the “ASFV yield after virucidal pre-incubation” value in the data set on ASFV Ba71V strain [1] is on record as 4.64±0.09 log TCID50/ml. The “cell monolayer damage upon treatment” value in the data set with ASFV Ba71V strain [2] is “no apparent cell monolayer damage”. For the same compound, the inhibition at 10 µg/mL in the data set on ASFV Ba71V strain [3] is above 40%.

For the compound `Oc1c2ccccc2c2c3c(cccc13)N=N2` [SP600125, reference compound], the “effect of the inhibitor alone on ASFV infection” value with ASFV is recorded as “only a slight effect on ASFV infection”.

For the compound `COc1ccc(-c2coc3cc(O)ccc3c2=O)cc1O` [calycosin], the “cell monolayer damage upon treatment” value in the data set on ASFV Ba71V strain [2] is “no apparent cell monolayer damage”. In the data set on ASFV Ba71V strain [3], the inhibition at 20 µg/mL is above 40%.

Regarding `COc1ccc(-c2cc(=O)c3c(O)cc(O[C@@H]4O[C@H](CO[C@@H]5O[C@@H](C)[C@H](O)[C@@H](O)[C@H]5O)[C@@H](O)[C@H](O)[C@H]4O)cc3o2)cc1O` [diosmin], the “cell monolayer damage upon treatment” value in the data set on ASFV Ba71V strain [2] is on record as “no apparent cell monolayer damage”. Besides, the CC50 in the data set “in vitro” is 33.1 µg/mL and 54.4 µM. Also, the inhibition at 10 µg/mL with ASFV Ba71V strain [3] was above 40%.

With `COc1ccc(-c2cc(=O)c3c(OC)cc(OC)c(OC)c3o2)cc1OC` [isosinensetin], the “cell monolayer damage upon treatment” value in the data set with ASFV Ba71V strain [2] is “no apparent cell monolayer damage”. Besides, in “in vitro”, the CC50 was 24.8 µg/mL and 66.6 µM; the viability is 58.5%. For the same compound, the inhibition at 20 µg/mL in the data set with ASFV Ba71V strain [3] is above 40%.

Compound `O=c1c(O)c(-c2ccc(O)cc2)oc2cc(O)cc(O)c12` [kaempferol, 3,5,7-trihydroxy-2-(4-hydroxyphenyl)-4H-chromen-4-one] displayed a viral yield with ASFV Ba71V strain [4] of 3.98±0.19 log TCID50/ml. For the same compound, the inhibition at 20 µg/mL in the data set on ASFV Ba71V strain [4] (African swine fever virus, Vero, 24 h, read-out: inhibition of ASFV infection) is above 92%. Also, the virucidal effect entry in the data set with ASFV Ba71V strain [1] is given as “no virucidal effects”. Moreover, in the data set on ASFV Ba71V strain [5], the “antiviral effect, log decrease of ASFV titer” value is listed as 1.26 log. For the same compound, the IC50 in the data set with ASFV Ba71V strain [5] (African swine fever virus, Vero) was 2.2 µg/mL and 7.7 µM. Further, the “inhibition, log decrease of ASFV titer” value in the data set on ASFV Ba71V strain [6] was 1.21 log. Further, the “viral titers as the interval between infection and removal increased” value in the data set with ASFV Ba71V [7] is on record as “gradual declines in viral titers”. Moreover, in the data set with ASFV Ba71V [8], the “inhibitory effect on ASFV infection” value is on record as “no significant inhibitory effect”; the “suppression of viral infection” value is given as “more than 90%”; the viral titer reduction was 1.25 log and 1.1 log. In the data set with ASFV Ba71V strain [9], the “inhibition of the ASFV yield” value is “more than 60%”; the “viral titer, attachment experiment” value amounted to 3.97±0.25 log TCID50/ml; the “virus titer, internalization experiment” value is on record as 3.63±0.11 log TCID50/ml. Further, the inhibition at 20 µg/mL in the data set on ASFV Ba71V strain [9] (African swine fever virus, Vero, read-out: inhibition of the ASFV yield, attachment experiment) is around 60%. Moreover, the “plaque numbers (virus spread)” value with ASFV Ba71V [10] is recorded as “significant reduction in plaque numbers in a dose-dependent manner”. For the same compound, in the data set with ASFV protein (pA104R), the “viral protein synthesis (late protein pA104R)” value was “viral protein synthesis was reduced”. In addition, the “decrease of viral DNA in viral factories vs untreated control” value in the data set on ASFV Ba71V [11] came to 31%. Moreover, in the data set with ASFV Arm/07 isolate [12], the anti-ASFV activity result was “Anti-ASFV activity was observed” and the viral titer was 3.4±0.14 log HADU50/ml. Besides, the “inhibition, log decrease of titer” value in the data set with ASFV Arm/07 isolate [13] is “about 2 log”. For the same compound, the “effect on ASFV entry” value with ASFV Arm/07 isolate [14] was “could hinder the ASFV attachment and internalization processes”. For the same compound, the “decrease in the amount of viral DNA in ASFV factories” value in the data set with ASFV Arm/07 isolate [15] is given as 39%. For the same compound, in [16], the “formation of autophagic vacuoles” value is “induced the formation of autophagic vacuoles”. In addition, the “antiviral activity in the presence of autophagy inhibitor SP600125” value in the data set on ASFV is listed as “partially abrogated”. The “cell monolayer damage upon treatment” value in the data set on ASFV Ba71V strain [2] is on record as “no apparent cell monolayer damage”. The “cytotoxicity for porcine cells” value with porcine macrophages is “not cytotoxic”. Moreover, the human plasma concentration entry in data set [17] is “around 58 nm”. For the same compound, the inhibition at 20 µg/mL in the data set on ASFV Ba71V strain [3] was above 40%.

As for `COc1c2occc2c(OC)c2c(=O)cc(C)oc12` [khellin], the “cell monolayer damage upon treatment” value in the data set on ASFV Ba71V strain [2] was “no apparent cell monolayer damage”. For the same compound, the inhibition at 10 µg/mL in the data set on ASFV Ba71V strain [3] is above 40%.

For the compound `Oc1ccc2c(c1)OC[C@H]1c3cc4c(cc3O[C@@H]21)OCO4` [maackiain], in the data set on ASFV Ba71V strain [2], the “cell monolayer damage upon treatment” value is “no apparent cell monolayer damage”. The inhibition at 20 µg/mL in the data set with ASFV Ba71V strain [3] is above 40%.

Regarding `COc1cc(O)c2c(c1)O[C@H](c1ccc(O)cc1)CC2=O` [sakuranetin], the “cell monolayer damage upon treatment” value with ASFV Ba71V strain [2] was “no apparent cell monolayer damage”. Further, in the data set with ASFV Ba71V strain [3], the inhibition at 20 µg/mL was above 40%.

With `COc1ccc(-c2cc(=O)c3c(OC)c(OC)c(OC)cc3o2)cc1OC` [sinensetin], in the data set on ASFV Ba71V strain [2], the “cell monolayer damage upon treatment” value is reported as “no apparent cell monolayer damage”. In “in vitro”, the CC50 was 150 µg/mL and 404 µM. Further, in the data set on ASFV Ba71V strain [3], the inhibition at 20 µg/mL is above 40%.
